Assay results as given in US11553716B2, “Agricultural and horticultural fungicide composition” (Nippon Soda Co., Ltd., priority 2018, dated 2023).
Read-outs that look alike come from different tables or passages of the source.

Test system: cucumber gray mold disease fungi (Botrytis cinerea)
Assay: Cucumber gray mold control test
Type: in vivo
Conditions: for pest or weed control at 0.025 ppm: Compound A 0.025 ppm alone (Compound B 0 ppm); for pest or weed control at 0.0063 ppm: Compound A 0.0063 ppm alone (Compound B 0 ppm)
Protocol: The compound A and the compound B were dissolved in an organic solvent and a surfactant to obtain an emulsion. The emulsion was diluted to a prescribed concentration with water. The dilute emulsion was sprayed to cotyledons of cucumber (variety: Shimoshirazu). They were naturally dried at room temperature. Thereafter, a conidiospore suspension of cucumber gray mold disease fungi (Botrytis cinerea) was dropwise inoculated. It was placed in a dark room at 20° C. and high humidity for 4 days. Appearance of disease spots on the leaves and that on untreated leaves were compared and studied, and a control ratio was calculated. The test was carried out in duplicate.
Based on the Colby's equation, a theoretical control ratio in the dilute emulsion prepared by using the compound A and the compound B together was calculated from a measured control ratio in the dilute emulsion prepared by using the compound A alone and that in the dilute emulsion prepared by using the compound B alone. Colby's equation: E=M+N−MN/100
M: measured control ratio (%) in dilute emulsion prepared by using compound A alone
N: measured control ratio (%) in dilute emulsion prepared by using compound B alone
E: theoretical control ratio (%) in dilute emulsion prepared by using compound A and compound B together
A control ratio of 0% means that disease spots of the same level as those of the non-treatment plot were observed, and a control ratio of 100% means that no disease spot was observed.
The test was carried out in the same manner as in Example 1.

[1] = Botrytis cinerea, 96 h, Table 4, Compound B 100 ppm alone (Compound A 0 ppm), read-out: Cucumber gray mold control ratio
[2] = Botrytis cinerea, 96 h, read-out: Cucumber gray mold control ratio, Table 4
[3] = Botrytis cinerea, 96 h, read-out: Cucumber gray mold control ratio, Table 5
[4] = Botrytis cinerea, 96 h, Table 4, Compound B 0.4 ppm alone (Compound A 0 ppm), read-out: Cucumber gray mold control ratio
[5] = Botrytis cinerea, 96 h, Table 4, Compound B 1.6 ppm alone (Compound A 0 ppm), read-out: Cucumber gray mold control ratio

Q: What does the source list for `N#Cc1sc2c(=O)c3ccccc3c(=O)c=2sc1C#N` [Dithianon, dithianon]?
A: pest or weed control at 25 µg/mL (Botrytis cinerea, 96 h, Table 4, Compound B 25 ppm alone (Compound A 0 ppm), read-out: Cucumber gray mold control ratio): 13%; pest or weed control at 100 µg/mL [1]: 10%

Q: With `[H]/N=C(/N)N[C@H]1[C@H](O)[C@@H](O)[C@H](O[C@@H]2O[C@@H](C)[C@](O)(C=O)[C@H]2O[C@@H]2O[C@@H](CO)[C@H](O)[C@@H](O)[C@@H]2NC)[C@@H](N/C(N)=N\[H])[C@@H]1O` [Streptomycin, streptomycin] as the compound, how does the pest or weed control at 100 µg/mL [1] read?
A: The pest or weed control at 100 µg/mL was 12%.

Q: What about the pest or weed control at 400 µg/mL (Botrytis cinerea, 96 h, Table 4, Compound B 400 ppm alone (Compound A 0 ppm), read-out: Cucumber gray mold control ratio) of the same compound?
A: Its pest or weed control at 400 µg/mL is 13%.

Q: `Cc1nc2c(F)c(F)ccc2cc1Oc1cccc(F)c1C(C)(C)O` [Compound A, 2-{2-[(7,8-difluoro-2-methylquinolin-3-yl)oxy]-6-fluorophenyl}propan-2-ol] was tested. Which pest or weed control at 0.025 ppm (Botrytis cinerea, 96 h, read-out: Cucumber gray mold control ratio, Table 1) did it give?
A: The pest or weed control at 0.025 ppm was 24%.

Q: What about the pest or weed control at 0.1 ppm (Botrytis cinerea, 96 h, read-out: Cucumber gray mold control ratio, Table 1, Compound A 0.1 ppm alone (Compound B 0 ppm)) of the same compound?
A: Its pest or weed control at 0.1 ppm is 89%.

Q: And the pest or weed control at 0.025 ppm (Botrytis cinerea, 96 h, read-out: Cucumber gray mold control ratio, Table 2)?
A: Its pest or weed control at 0.025 ppm is 17%.

Q: What about the pest or weed control at 0.1 ppm (Botrytis cinerea, 96 h, read-out: Cucumber gray mold control ratio, Table 2, Compound A 0.1 ppm alone (Compound B 0 ppm)) of the same compound?
A: The pest or weed control at 0.1 ppm was 48%.

Q: What about the pest or weed control at 0.025 ppm (Botrytis cinerea, 96 h, read-out: Cucumber gray mold control ratio, Table 3) of the same compound?
A: Its pest or weed control at 0.025 ppm is 5%.

Q: What about the pest or weed control at 0.1 ppm (Botrytis cinerea, 96 h, read-out: Cucumber gray mold control ratio, Table 3, Compound A 0.1 ppm alone (Compound B 0 ppm)) of the same compound?
A: The pest or weed control at 0.1 ppm was 53%.

Q: And the pest or weed control at 0.0063 ppm [2]?
A: The pest or weed control at 0.0063 ppm was 10%.

Q: And the pest or weed control at 0.025 ppm [2]?
A: The pest or weed control at 0.025 ppm was 7%.

Q: What about the pest or weed control at 0.1 ppm (Botrytis cinerea, 96 h, read-out: Cucumber gray mold control ratio, Table 4, Compound A 0.1 ppm alone (Compound B 0 ppm)) of the same compound?
A: Its pest or weed control at 0.1 ppm is 26%.

Q: And the pest or weed control at 0.0063 ppm [3]?
A: The pest or weed control at 0.0063 ppm was 3%.

Q: What about the pest or weed control at 0.025 ppm [3] of the same compound?
A: Its pest or weed control at 0.025 ppm is 17%.

Q: And the pest or weed control at 0.1 ppm (Botrytis cinerea, 96 h, read-out: Cucumber gray mold control ratio, Table 5, Compound A 0.1 ppm alone (Compound B 0 ppm))?
A: The pest or weed control at 0.1 ppm was 64%.

Q: For `CC#Cc1cc(C)nc(Nc2ccccc2)n1` [Mepanipyrim, mepanipyrim], which pest or weed control at 0.4 µg/mL [4] is on record?
A: Its pest or weed control at 0.4 µg/mL is 19%.

Q: And the pest or weed control at 1.6 µg/mL [5]?
A: Its pest or weed control at 1.6 µg/mL is 29%.

Q: `Cc1ccc2nc3sc(=O)sc3nc2c1` [Chinomethionat, chinomethionat] was tested. Which pest or weed control at 100 µg/mL (Botrytis cinerea, 96 h, read-out: Cucumber gray mold control ratio, Table 5, Compound B 100 ppm alone (Compound A 0 ppm)) did it give?
A: Its pest or weed control at 100 µg/mL is 20%.

Q: And the pest or weed control at 400 µg/mL (Botrytis cinerea, 96 h, read-out: Cucumber gray mold control ratio, Table 5, Compound B 400 ppm alone (Compound A 0 ppm))?
A: The pest or weed control at 400 µg/mL was 14%.

Q: Which pest or weed control at 100 µg/mL (Botrytis cinerea, 96 h, Table 5, Compound B 100 ppm alone (Compound A 0 ppm), read-out: Cucumber gray mold control ratio) does the source give for `CN(C)[C@@H]1C(O)=C(C(N)=O)C(=O)[C@@]2(O)C(O)=C3C(=O)c4c(O)cccc4[C@@](C)(O)[C@H]3[C@H](O)[C@@H]12` [Oxytetracycline, oxytetracycline] here?
A: The pest or weed control at 100 µg/mL was 18%.

Q: What about the pest or weed control at 400 µg/mL (Botrytis cinerea, 96 h, Table 5, Compound B 400 ppm alone (Compound A 0 ppm), read-out: Cucumber gray mold control ratio) of the same compound?
A: Its pest or weed control at 400 µg/mL is 21%.

Q: `CCCC1COC(Cn2cncn2)(c2ccc(Cl)cc2Cl)O1` (stereo not drawn) [Propiconazole, propiconazole] was tested. Which pest or weed control at 1.6 µg/mL (Botrytis cinerea, 96 h, Table 5, Compound B 1.6 ppm alone (Compound A 0 ppm), read-out: Cucumber gray mold control ratio) did it give?
A: Its pest or weed control at 1.6 µg/mL is 26%.

Q: And the pest or weed control at 6.3 µg/mL (Botrytis cinerea, 96 h, Table 5, Compound B 6.3 ppm alone (Compound A 0 ppm), read-out: Cucumber gray mold control ratio)?
A: Its pest or weed control at 6.3 µg/mL is 42%.

Q: Which results are given for `COC(=O)N(OC)c1ccccc1COc1ccn(-c2ccc(Cl)cc2)n1` [Pyraclostrobin, pyraclostrobin]?
A: pest or weed control at 1.6 µg/mL [5]: 23%; pest or weed control at 6.3 µg/mL (Botrytis cinerea, 96 h, Table 4, Compound B 6.3 ppm alone (Compound A 0 ppm), read-out: Cucumber gray mold control ratio): 46%

Q: How did the pest or weed control at 400 ppm (Botrytis cinerea, 96 h, read-out: Cucumber gray mold control ratio, Table 1, Compound B 400 ppm alone (Compound A 0 ppm)) turn out when `C=CCNC(=O)c1c([Si](C)(C)C)sc(C)c1C` [Compound B, silthiofam] was run?
A: Its pest or weed control at 400 ppm is 0%.

Q: And the pest or weed control at 6.3 ppm (Botrytis cinerea, 96 h, read-out: Cucumber gray mold control ratio, Table 2, Compound B 6.3 ppm alone (Compound A 0 ppm))?
A: Its pest or weed control at 6.3 ppm is 0%.

Q: What about the pest or weed control at 25 ppm (Botrytis cinerea, 96 h, read-out: Cucumber gray mold control ratio, Table 2, Compound B 25 ppm alone (Compound A 0 ppm)) of the same compound?
A: The pest or weed control at 25 ppm was 0%.

Q: What about the pest or weed control at 100 ppm (Botrytis cinerea, 96 h, read-out: Cucumber gray mold control ratio, Table 2, Compound B 100 ppm alone (Compound A 0 ppm)) of the same compound?
A: The pest or weed control at 100 ppm was 5%.

Q: And the pest or weed control at 0.1 ppm (Botrytis cinerea, 96 h, read-out: Cucumber gray mold control ratio, Table 3, Compound B 0.1 ppm alone (Compound A 0 ppm))?
A: The pest or weed control at 0.1 ppm was 0%.

Q: And the pest or weed control at 0.4 ppm (Botrytis cinerea, 96 h, read-out: Cucumber gray mold control ratio, Table 3, Compound B 0.4 ppm alone (Compound A 0 ppm))?
A: The pest or weed control at 0.4 ppm was 0%.

Q: What about the pest or weed control at 1.6 ppm (Botrytis cinerea, 96 h, read-out: Cucumber gray mold control ratio, Table 3, Compound B 1.6 ppm alone (Compound A 0 ppm)) of the same compound?
A: The pest or weed control at 1.6 ppm was 0%.

Q: Which results are given for `CC1(C)CCC(Cc2ccc(Cl)cc2)C1(O)Cn1cncn1` (stereo not drawn) [Metconazole, metconazole]?
A: pest or weed control at 0.4 µg/mL [4]: 22%; pest or weed control at 1.6 µg/mL [5]: 29%

Q: `Cc1cc(C)nc(Nc2ccccc2)n1` [Pyrimethanil, pyrimethanil] was tested. Which pest or weed control at 0.4 µg/mL [4] did it give?
A: The pest or weed control at 0.4 µg/mL was 6%.

Q: What about the pest or weed control at 1.6 µg/mL [5] of the same compound?
A: The pest or weed control at 1.6 µg/mL was 16%.

Q: What does the source list for propineb?
A: Cucumber gray mold control ratio (Table 5, Compound B 100 ppm alone (Compound A 0 ppm)): 27%; Cucumber gray mold control ratio (Table 5, Compound B 400 ppm alone (Compound A 0 ppm)): 33%
